Data on seven molecules can be found in ChEMBL document CHEMBL1132333, “Synthesis and enantiomeric separation of 2-phthalimidino-glutaric acid analogues: potent inhibitors of tumor metastasis” (1999).

The test relates to Mus musculus. The test can be described thus: Compound (0.4 mmol/Kg) was evaluated for its ability to inhibit B16BL6 pulmonary metastasis in mice. The number of lung metastases of treated (T) and nontreated or control (C) is expressed as ratio, T/C. In kind it is functional.
Regarding `CC(CCC(=O)O)(C(=O)O)N1Cc2ccccc2C1=O` (configuration not stated), the T/C amounted to 0.25.
For `C[C@@](CCC(=O)O)(C(=O)O)N1Cc2ccccc2C1=O`, the T/C is 0.7.
`O=C(O)CCC(C(=O)O)N1Cc2ccc(O)cc2C1=O` (configuration not stated): the T/C amounted to 0.9.
With `O=C(O)CCC(C(=O)O)N1Cc2ccccc2C1=O` (configuration not stated), the T/C was 0.2.
Turning to `O=C(O)CCC(C(=O)O)N1Cc2cccc(O)c2C1=O` (configuration not stated), the T/C came out at 0.95.
Regarding `C[C@](CCC(=O)O)(C(=O)O)N1Cc2ccccc2C1=O`, the T/C was determined as 0.15.
For the molecule `O=C1CCC(N2C(=O)c3ccccc3C2=O)C(=O)N1` (configuration not stated) [THALIDOMIDE], the T/C is listed as 0.9.
